Measured values taken from ChEMBL document CHEMBL5550169, “A consensus reverse docking approach for identification of a competitive inhibitor of acetyltransferase enhanced intracellular survival protein from Mycobacterium tuberculosis” (Bioorg Med Chem, 2024).
Converted amounts (≈) assume the structure as drawn.

What was measured:
[1] = system: Mycobacterium tuberculosis; test: Antibacterial activity against Mycobacterium tuberculosis H37Ra measured after 7 days by resazurin reduction microplate assay; assay type: functional; details: 168 h, time 7 day
[2] = target: T1, N-acetyltransferase Eis (Mycobacterium tuberculosis (strain ATCC 25618 / H37Rv), UniProt P9WFK7); test: Inhibition of Mycobacterium tuberculosis H37Rv Eis protein using kanamycin as substrate preincubated for 10 mins followed by AcCoA addition and measured every 30 secs for 20 mins
T1 sequence (P9WFK7 whole entry): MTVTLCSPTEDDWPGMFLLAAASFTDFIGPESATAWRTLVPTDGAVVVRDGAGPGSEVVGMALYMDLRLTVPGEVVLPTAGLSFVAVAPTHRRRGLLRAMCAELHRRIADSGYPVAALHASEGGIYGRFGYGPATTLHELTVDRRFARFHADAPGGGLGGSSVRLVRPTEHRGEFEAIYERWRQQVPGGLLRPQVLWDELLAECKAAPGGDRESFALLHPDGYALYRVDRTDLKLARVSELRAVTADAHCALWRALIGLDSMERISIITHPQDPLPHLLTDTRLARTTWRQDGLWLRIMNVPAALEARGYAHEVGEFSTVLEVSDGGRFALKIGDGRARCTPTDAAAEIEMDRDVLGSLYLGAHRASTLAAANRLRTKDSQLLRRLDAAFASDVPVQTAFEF

[3] = system: Mycobacterium tuberculosis; test: Antibacterial activity against Mycobacterium tuberculosis H37Rv assessed as reduction in pellet formation measured after 7 to 14 days by alamar blue assay; assay type: functional; details: time 7-14 day
[4] = system: Mycobacterium tuberculosis; test: Antibacterial activity against Mycobacterium tuberculosis IAR2 assessed as reduction in pellet formation measured after 7 to 14 days by alamar blue assay; assay type: functional; details: time 7-14 day
[5] = Cmax in female BALB/c mouse plasma at 100 mg/kg, po administered as single dose via oral gavage and measured upto 24 hrs by LC-MS analysis; assay type: ADME, organism-based
[6] = Tmax in female BALB/c mouse plasma at 100 mg/kg, po administered as single dose via oral gavage and measured upto 24 hrs by LC-MS analysis; assay type: ADME, organism-based
[7] = Cmax in female BALB/c mouse lungs at 100 mg/kg, po administered as single dose via oral gavage and measured upto 24 hrs by LC-MS analysis; assay type: ADME, organism-based; details: lung
[8] = Tmax in female BALB/c mouse lungs at 100 mg/kg, po administered as single dose via oral gavage and measured upto 24 hrs by LC-MS analysis; assay type: ADME, organism-based; details: lung

SMILES	MIC [1] [µM]	other results
CCOC(=O)/C(C#N)=C/c1c[nH]c2ccccc12	> 200	–
C=CCn1c(SCC(=O)c2ccc(OC)cc2)nc2ccccc2c1=N	> 200	–
O=C(CSc1nc2sc3c(c2c(=O)n1-c1ccccc1)CCCC3)c1ccc(Cl)c(Cl)c1	> 200	–
O=C(CSc1nc2ccccc2c(=O)n1-c1ccccc1)c1ccccc1	200 (≈ 74.5 µg/mL)	–
Cc1ccc(C(=O)CSc2nc3sc4c(c3c(=O)n2Cc2ccccc2)CCCC4)cc1	> 200	–
COC(=O)/C(C#N)=C/c1c[nH]c2ccccc12	> 200	–
CC(C)OC(=O)/C(C#N)=C/c1c[nH]c2ccccc12	100 (≈ 25.4 µg/mL)	–
CN1CCCC(CSc2nc(N)c3c4c(sc3n2)CCCC4)C1 (centres undefined)	–	IC50 [2]: 0.15 µM
N#C/C(=C\c1c[nH]c2ccccc12)C(=O)NCCc1ccccc1	> 200	–
N#C/C(=C\c1c[nH]c2cccc([N+](=O)[O-])c12)C(=O)NCCCc1ccccc1	> 200	–
O=C(CSc1nc2sc3c(c2c(=O)n1Cc1ccccc1)CCCC3)c1cccc(Cl)c1	> 200	–
Cc1cc(C)c2c(C(=O)NC3CCCCC3)c[nH]c2c1	–	MIC [3]: 4 ng/mL (≈ 0.0148 µM); MIC [4]: ≥ 250 ng/mL
O=C(CSc1nc2sc3c(c2c(=O)n1Cc1ccccc1)CCCC3)c1cccc(O)c1	200 (≈ 92.5 µg/mL)	–
N#C/C(=C\c1c[nH]c2ccccc12)C(=O)NCc1ccccc1	> 200	–
O=C(CSc1nc2sc3c(c2c(=O)n1Cc1ccccc1)CCCC3)c1ccc(Cl)c(Cl)c1	> 200	–
N#C/C(=C\c1c[nH]c2ccccc12)C(=O)N1CCSCC1	> 200	–
Cc1cc(C)c2c(C(=O)NC3CCCCCCC3)c[nH]c2c1	–	MIC [3]: 4 ng/mL (≈ 0.0134 µM); MIC [4]: ≥ 250 ng/mL; Cmax [5]: 490 ng/mL; Tmax [6]: 2 h; Cmax [7]: 2470 ng/mL; Tmax [8]: 4 h
C=CCn1c(SCC(=O)c2ccc(Cl)cc2)nc2sc3c(c2c1=O)CCCC3	> 200	–
COc1ccc(C(=O)CSc2nc3sc4c(c3c(=O)n2-c2ccccc2)CCCC4)cc1	> 200	–
Cc1cc(C)c2c(C(=O)NC3CCCCCC3)c[nH]c2c1	–	MIC [3]: 4 ng/mL (≈ 0.0141 µM); MIC [4]: ≥ 250 ng/mL
CCCCOC(=O)/C(C#N)=C/c1c[nH]c2ccccc12	> 200	–
C=CCn1c(SCC(=O)c2ccc(Cl)c(Cl)c2)nc2sc3c(c2c1=O)CCCC3	> 200	–
